Data set [1] concerns LNCaP cells. The data set is described as follows: Specific cell uptake and internalization in LNCaP cells. It is filed as cell-based, human. The settings on record: for Cell surface / Internalised: 30 nM radiolabeled compound, 45 min, 37° C., specific (PMPA block); for Internalized fraction: (Internalized activity/total activity)*100. On the procedure: During cell culture, cells were grown at 37° C. in an incubator with humidified air, equilibrated with 5% CO2. […] To determine the specific cell uptake and internalization, 10^5 cells were seeded in poly-L-lysine coated 24-well cell culture plates 24 h before incubation. After washing, the cells were incubated with 30 nM of the radiolabeled compounds for 45 min at 37° C. […] Cellular uptake was terminated by washing 3 times with 1 mL of ice-cold PBS. […] The cells were washed with 1 mL of ice-cold PBS and lysed using 0.3 N NaOH (0.5 mL). The surface-bound and the internalized fractions were measured in a gamma counter. The cell uptake was calculated as percent of the initially added radioactivity bound to 10^5 cells [% ID/10^5 cells].

The test system of data set [2] is LNCaP tumor (PSMA positive). Type of data set: in vivo, mice. On the procedure: (§1) For in vivo experiments, 8 week old BALB/c nu/nu mice were subcutaneously inoculated into the right trunk with 5×10^6 LNCaP- or PC3-cells in 50% Matrigel. When the size of tumor was approximately 1 cm^3, the radiolabeled compound was injected via the tail vein (ca. 30 MBq, 60 pmol for μPET imaging; ca. 1 MBq, 60 pmol for organ distribution).
(§2) The F-18 labeled compounds were injected via tail vein (1-2 MBq per mouse; 60 pmol). At 1 h after injection, the animals were sacrificed. Organs of interest were dissected, blotted dry, and weighed. The radioactivity was measured with a gamma counter (Packard Cobra II, GMI, Minnesota, USA) and calculated as % ID/g.

In data set [3] the test system is PC3-tumor (PSMA negative). The data set is described as follows: Organ distribution in mice carrying a PC3-tumor (PSMA negative). Type of data set: in vivo. On the procedure: as §1, §2
The subject of data set [4] is LNCaP tumor xenografts. The data set is described as follows: MicroPET in mice bearing LNCaP tumor xenografts. It is filed as in vivo. The settings on record: 120-140 min p.i. On the procedure: For the microPET studies, 10-25 MBq of the radiolabeled compounds in a volume of 0.10 ml (60 pmol) were injected via a lateral tail vein into mice bearing LNCaP tumor xenografts. The anesthetized animals (2% sevoflurane, Abbott, Wiesbaden, Germany) were placed in prone position into the Inveon small animal PET scanner (Siemens, Knoxville, Tenn., USA) to perform dynamic microPET scans.
as §1

Data set [5] in a line: PET/CT dosimetry and kinetics in a healthy volunteer. Type of data set: in vivo, human. As for the experimental part: The healthy subject was injected a total activity of 300 MBq and subsequently PET scans were performed on a Biograph mCT Flow scanner (Siemens, Erlangen, Germany) in three blocks. Block 1 contained PET-1 (start 5 min p.i.) to PET-7 (ending 140 min p.i.), block 2 contained PET-8 (start 180 min p.i.) and PET-9 (240-270 min p.i.), block 3 contained PET-10 (440-480 min p.i.). A non-enhanced low-dose CT (estimate 1.43 mSv, respectively) for attenuation correction was performed at the beginning of each block, followed by serial emission scans without moving the volunteer in between.
Kidneys, liver, spleen, whole heart, upper and lower large intestine, parotid glands, submandibular glands and urinary bladder were segmented into volumes of interest (VOIs) using a percentage of maximum threshold between 20% and 30% using the corresponding CT as guidance and then time activity curves (TACs) were calculated for all organs. The TAC for red marrow was derived from the venous blood samples and then the dose for the red marrow calculated (S. Shen et al., JNM 2002, 43, 1245-1253; G. Sgouros et al., JNM 1993, 34, 689-694.). The TAC for the urinary bladder content was a combination of estimated activity in the urinary bladder VOI in PET and activity measured in the voided urine. Curve fitting was applied to all TACs. Kidneys, salivary glands, upper and lower large intestine and heart were fitted with a bi-exponential function. For liver, spleen and urinary bladder content a mono-exponential fit to the last three time points was performed.
Absorbed and effective dose calculations were performed using the ICRP endorsed IDAC 1.0 package which is integrated in QDOSE. Additionally, residence times of all included source organs and remainder body were exported as an OLINDA case file for dose calculation (OLINDA 1.1). The absorbed doses to the salivary glands (parotid and submandibular glands) were determined using the spherical model. The organ masses for the salivary glands were estimated with 25 g for a parotid and 12.5 g for a submandibular gland (ICRP publication 89).

The test system of data set [6] is prostate cancer. The data set can be described thus: First-in-man PET study in patients suffering from prostate cancer, with histopathology correlation. Type of data set: in vivo, human. As for the experimental part:
Ten patients (age 60-80 years) suffering from a newly diagnosed high-risk prostate cancer with a gleason score of 7-9 and initial PSA levels of 5-90 ng/ml were injected 100-360 MBq [^18F]-PSMA-1007 and subsequently PET scans were performed on a Biograph mCT Flow scanner (Siemens, Erlangen, Germany) at 1 and 3 h p.i. The results are depicted in FIGS. 17 and 18 as mean values of the SUVmean and SUVmax, respectively. The pictures gained with the PET scans are exemplified in FIGS. 19 and 20 as maximum intensity projections.
Eight of the patients underwent radical prostatectomy with extended pelvic lymphadenectomy. Analyses of prostatectomy specimen were performed blinded to PET-data under the supervision of dedicated uropathologists, according to International Society of Urological Pathology standards (T. H. van der Kwast et al. Mod. Phathol. 2011, 24, 16-25). Representative sections were stained by immunohistochemistry. The sections were deparaffinized in xylene and rehydrated in a graded ethanol series. Antigen retrieval was performed with a steam cooker using retrieval buffer (Target Retrieval Solution, Dako). A mouse monoclonal antibody against PSMA (clone 3E6, Dako) was used at a 1:100 dilution and incubated overnight at 4° C. ad subsequently immunodetection was performed using the Histostain-Plus detection kit (Invitrogen). Stained sections were scanned using a Nanozoomer 2.0-HT Scansystem (Hamamatsu Photonics) to generate digital whole slide images.

Data set [7] concerns the target T1, PSMA (Homo sapiens, UniProt Q04609).
T1 construct: host or cells: LNCaP cells
The data set is described as follows: Competitive cell binding assay (binding affinity) on LNCaP cells against 68Ga-labeled [Glu-urea-Lys(Ahx)]2-HBED-CC. The settings on record: competition with 68Ga-labeled [Glu-urea-Lys(Ahx)]2-HBED-CC, non-radioactive reference compounds. As for the experimental part: For binding studies and in vivo experiments LNCaP cells (metastatic lesion of human prostatic adenocarcinoma, ATCC CRL-1740) were cultured in RPMI medium supplemented with 10% fetal calf serum and Glutamax (PAA, Austria). During cell culture, cells were grown at 37° C. in an incubator with humidified air, equilibrated with 5% CO2. The cells were harvested using trypsin-ethylenediaminetetraacetic acid (trypsin-1.5 EDTA; 0.25% trypsin, 0.02% EDTA, all from PAA, Austria) and washed with PBS.
The competitive cell binding assay and internalization experiments were performed as described previously (Eder et al. Bioconjugate Chem. 2012, 23 (4), 688-697). Briefly, the respective cells (10^5 per well) were incubated with the radioligand (^68Ga-labeled [Glu-urea-Lys(Ahx)]2-HBED-CC (Schafer et al. EJNMMI Research 2012, 2:23 doi:10.1186/2191-219X-2-23))) in the presence of 12 different concentrations of analyte (0-5000 nM, 100 μL/well). After incubation, washing was carried out using a multiscreen vacuum manifold (Millipore, Billerica, Mass.). Cell-bound radioactivity was measured using a gamma counter (Packard Cobra II, GMI, Minnesota, USA). The 50% inhibitory concentration (IC50) was calculated by fitting the data using a nonlinear regression algorithm (GraphPad Software). Experiments were performed three times. Reference is made to Table A below.

T1 sequence (Q04609 whole entry): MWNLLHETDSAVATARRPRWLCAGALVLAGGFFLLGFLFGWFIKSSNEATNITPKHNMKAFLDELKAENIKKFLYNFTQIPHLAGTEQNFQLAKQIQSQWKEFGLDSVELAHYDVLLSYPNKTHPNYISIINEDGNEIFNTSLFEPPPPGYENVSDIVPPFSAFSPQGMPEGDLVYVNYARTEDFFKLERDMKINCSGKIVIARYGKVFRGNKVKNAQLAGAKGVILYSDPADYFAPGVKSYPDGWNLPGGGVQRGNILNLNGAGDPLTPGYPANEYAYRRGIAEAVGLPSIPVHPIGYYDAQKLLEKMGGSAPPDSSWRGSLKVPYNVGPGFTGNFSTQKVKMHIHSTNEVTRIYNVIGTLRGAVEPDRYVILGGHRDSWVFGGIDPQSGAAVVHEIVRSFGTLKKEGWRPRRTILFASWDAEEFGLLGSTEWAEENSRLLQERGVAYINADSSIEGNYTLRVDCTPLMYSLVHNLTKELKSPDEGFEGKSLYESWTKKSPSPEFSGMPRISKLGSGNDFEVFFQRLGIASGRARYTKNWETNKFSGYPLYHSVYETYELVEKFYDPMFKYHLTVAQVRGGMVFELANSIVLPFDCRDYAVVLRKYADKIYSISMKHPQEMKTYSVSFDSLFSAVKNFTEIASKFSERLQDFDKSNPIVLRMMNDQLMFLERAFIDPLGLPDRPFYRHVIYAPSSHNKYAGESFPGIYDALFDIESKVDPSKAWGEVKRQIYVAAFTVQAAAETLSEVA

In data set [1], `O=C(O)CCC(NC(=O)NC(CCCCNC(=O)C(Cc1ccc2ccccc2c1)NC(=O)c1ccc(CNC(=O)C(CCC(=O)O)NC(=O)C(CCC(=O)O)NC(=O)c2ccc([18F])nc2)cc1)C(=O)O)C(=O)O` (centres unmarked) [PSMA-1007, (Glu)-(Urea)-(Lys)-(2-Nal)-(Bn)-(Glu)-(Glu)-FN] had a Cell surface of 2.7 % ID/10^5 cells, an Internalised of 6.5 % ID/10^5 cells and an Internalized fraction of 71%. In addition, the “blocking of tumor binding in the blocking experiment” value in data set [2] (LNCaP tumor mice with PMPA block) is on record as “a quantitative blocking of the binding was not observed”. Further, the tumor uptake entry in data set [2] (LNCaP tumor mice, 1 h after injection, non-blocked) is “about 8.0±2.4 % ID/g”. For the same compound, the “uptake in non-target tissue such as the liver and the small intestine” value in data set [2] (mouse, in vivo) was “significantly reduced uptake”. Besides, the tumor uptake result in data set [3] is “practically no tumor uptake was observed”. The “SUVmax of LNCaP tumor” value in data set [4] is on record as 3.1. Moreover, the “effective dose of a PET/CT scan” value in data set [5] (200-250 MBq, healthy volunteer) was 4.3-5.4 mSv. In addition, in data set [5] (healthy volunteer), the “blood pool activity found in the serum” value is recorded as “More than 95%” and the effective dose per injected activity is 0.0215 mSv/MBq. The clearance pathway entry in data set [5] (in comparison to other known PSMA-tracers) is reported as “very unique hepatobiliary clearance with very small clearance via the renal pathway”. Also, the “clearance from the blood pool” value in data set [5] (within the first 3 h after injection, healthy volunteer) is recorded as “more than 90%”. In data set [6], the “correlation of prostatectomy histopathology with PET images” value was “nearly perfect correlation”, the “diameter of detected lymph node metastases” value is not below 1 mm and the “specificity (correlation with pelvic lymphadenectomy samples)” value was 95%. The “tumor-to-background ratios in the primary tumor” value in data set [6] (calculated from SUVmax) is given as “up to 10”.
Consider `O=C(O)CCC(NC(=O)NC(CCCCNC(=O)C(Cc1ccc2ccccc2c1)NC(=O)c1ccc(CNC(=O)C(CNC(=O)c2ccc(F)nc2)S(=O)(=O)O)cc1)C(=O)O)C(=O)O` (centres unmarked) [PSMA-1026, (Glu)-(Urea)-(Lys)-(2-Nal)-(Bn)-(Sala)-FN], for which the IC50 (commonly the concentration that inhibits the measured activity by half) in data set [7] worked out at 14 nM.
`O=C(O)CCC(NC(=O)NC(CCCCNC(=O)C(Cc1ccc2ccccc2c1)NC(=O)c1ccc(CNC(=O)C(CNC(=O)C(CNC(=O)c2ccc(F)nc2)S(=O)(=O)O)S(=O)(=O)O)cc1)C(=O)O)C(=O)O` (centres unmarked) [PSMA-1027, (Glu)-(Urea)-(Lys)-(2-Nal)-(Bn)-(Sala)-(Sala)-FN]: the IC50 in data set [7] was determined as 7 nM.
Turning to “(Glu)-(Urea)-(Lys)-(2-Nal)-(Bn)-(Gla)-FN [PSMA-1025]”, in data set [7], the IC50 was 9 nM. In data set [1], this compound returned a Cell surface of 4.3 % ID/10^5 cells, an Internalised of 3.1 % ID/10^5 cells and an Internalized fraction of 42%.

Source of the values: patent US10815200B2, “18F—tagged inhibitors of prostate specific membrane antigen (PSMA) and their use as imaging agents for prostate cancer” (DEUTSCHES KREBSFORSCHUNGSZENTRUM, priority 2015, dated 2020).
